The values below come from US20220073532A1, “INHIBITORS OF CGAS ACTIVITY AS THERAPEUTIC AGENTS” (BELLBROOK LABS, LLC, priority 2019, published 2022).

As a reminder, the Kd is the constant that tells how readily two partners part at equilibrium.

Each structure is given as a SMILES string. Read-outs that look alike come from different tables or passages of the source. A value given as a limit tells only on which side of the number the result lay.

The target of assay [1] is T1, cGAS (Homo sapiens, UniProt Q8N884). Briefly: SPR / biophysical binding to cGAS. The conditions noted are these: SPR; read-out: Kd determined with SPR. The source says:
Following confirmation of hits at three concentrations and removal of compounds with visually evident reactivity or metabolic liabilities, non-stoichiometric inhibitors, aggregators, DNA intercalators and redox-active compounds were triaged (FIG. 2E) using established assays. […] Initial SAR based on more than 100 commercially available analogs provided additional confidence that the compounds were bonafide inhibitors, and informed potential scaffold hops and toleration for modifications.
A highly efficient platform for preclinical drug discovery (FIG. 3) was assembled, providing for development of cGAS inhibitors, which is improved by the addition of a powerful computational modeling method and in vivo PK studies (FIG. 3). […]
Biochemical and biophysical analysis: Potency and MOA studies, including Mn^2+ sensitivity, are performed using the cGAS enzymatic assay. […] Competition with ATP and GTP is assessed by comparing basal IC50 values to those in the presence of saturating ATP or GTP, and subsequently confirmed by measuring velocity vs. substrate at varying ATP or GTP levels. […]

Assay [2] concerns the target T1, cGAS. Briefly: cGAS enzymatic assay (FP/TR-FRET detection of cGAMP). Type of assay: biochemical. Also on record: The cGAS assay was used to screen 100,000 compounds with full-length human cGAS; 6xHis; made in house. The procedure:
Some exemplary compounds of the disclosure were tested for inhibition of cGAS (30 nM). The results are provided in Table 1 where “A” indicates an IC50 of less than 100 nM, “B” indicates an IC50 of greater than 100 nM and less than 500 nM, “C” indicates an IC50 of greater than 500 nM and less than 1 μM, “D” indicates an IC50 of greater than 1 μM and less than 10 μM, and “E” indicates an IC50 of greater than 10 μM.
A homogenous cGAS enzymatic assay was developed with fluorescence polarization (FP) and time-resolved Forster resonance energy transfer (TR-FRET) readouts (FIG. 2A-2D). The cGAS assay was used to screen 100,000 compounds with full-length human cGAS (FIG. 2E), resulting in the identification of the novel chemotype of the disclosure, two of which are further developed in a structure-driven hit-to-lead study (Table 3, below). The assay performance was robust, as indicated by respective Z and Z′ values of 0.59 and 0.63 in the screen; compounds with polarization values greater than three SDs from the mean were considered hits; a scatterplot from 10 plates (3,200 compounds) is shown in FIG. 2D.
Biochemical and biophysical analysis: Potency and MOA studies, including Mn^2+ sensitivity, are performed using the cGAS enzymatic assay. Dose response experiments are used to determine IC50 values under basal conditions (5 mM MgCl2, 100 μM ATP/GTP), and with the addition of physiological levels of Mn (0.2 mM) using human and mouse cGAS. Ligand optimization is driven by potency with the human enzyme; potency with mouse cGAS informs selection of an appropriate disease model for efficacy studies. Competition with ATP and GTP is assessed by comparing basal IC50 values to those in the presence of saturating ATP or GTP, and subsequently confirmed by measuring velocity vs. substrate at varying ATP or GTP levels. Inhibitor residence times (1/koff) are used as a key parameter for prioritizing compounds and driving SAR, because a longer residence time often results from an allosteric mechanism, and can also correlate with improved cellular activity. The cGAS enzymatic assay is used with the jump dilution method to measure residence times (inhibitor dissociation rates), as described for kinases using the very similar ADP assay. Biophysical methods, including SPR and TSA, are used as orthologous methods for residence time measurements and kd estimates.
In general terms: Time-resolved FRET reads energy transfer from a long-lived donor to a nearby acceptor.

For assay [3], the system named is IRF3-driven Luc expression in THP-1 Dual cells. In words: THP-1 Dual IRF3-Luc reporter assay. Type of assay: cell-based, human. The following applies: for inhibition of IRF3-dependent Luc expression: THP-1 Dual cells, induced by DNA or cGAMP; for cGAS-dependent cellular activity: human monocyte cell line THP-1. The method, then:
(§1) IFN induction in human monocyte cell lines: The human monocyte cell line THP-1 gives a robust cGAS/STING-dependent type I IFN response and has been used extensively for studies on the pathway. Typically, cells are stimulated by transfection with dsDNA and gene expression is assessed using an ELISA for IFNβ, a reporter gene assay, and/or cGAS/STING pathway markers such as STING phosphorylation. These assays were validated using the TBK1 inhibitor, BX-795, which acts downstream of cGAS/STING, as a probe; THP-1 Dual cells (Invivogen, San Diego) are used as the reporter cell line for routine compound testing (FIG. 5A). These assays were optimized, including equalizing responses with transfected DNA and cGAMP and comparing responses between undifferentiated cells and cells that have been differentiated to macrophages (which show little difference). […] Stimulation of THP-1 Dual cells with damage-associated molecular pattern molecules (DAMPs) that act through pattern recognition receptors other than cGAS provides another way to confirm the specificity of putative cGAS inhibitors.
A general note: A reporter such as luciferase makes a cellular process visible.

In assay [4] the test system is NFκB-driven SEAP expression in THP-1 Dual cells. In words: THP-1 Dual NFκB-SEAP reporter assay. The following applies: THP-1 Dual cells. Type of assay: cell-based, human. The method, then: as §1
Another assay deals with THP1 cGAS KO cells. Briefly: Specificity test in THP-Dual cGAS knockout cells. The following applies: LPS-stimulated, cGAS KO. The format is cell-based, human.
From the text: FIG. 5 includes (A) a schematic showing the THP1 dual-cell reporter system: secreted luciferase reports on IRF3-driven transcription; secreted alkaline phosphatase reports on NFκB-driven transcription, both downstream of cGAS/STING. THP-Dual cGAS knockout cells are used to test for non-specific effects; (B) a plot of the dose response for inhibition of Luc expression by Compound 15; (C) a plot of the dose response for inhibition of Luc expression by the TBK1 inhibitor, BX-795; and (D) a plot of the dose response for inhibition of SEAP expression by Compound 15.
as §1

Assay [5] concerns IFNβ expression in THP-1 cells. In words: IFNβ ELISA in THP-1 cells. The format is cell-based, human. The procedure:
as §1
Background: In an ELISA, binding on a coated surface is turned into a signal by an enzyme label.

[6] abbreviates: cGAS (30 nM), with Mn^2+, read-out: Inhibition cGAS + Mn^2+.
Where [7] appears, read: cGAS (30 nM), read-out: Inhibition cGAS.

T1 sequence (Q8N884 whole entry): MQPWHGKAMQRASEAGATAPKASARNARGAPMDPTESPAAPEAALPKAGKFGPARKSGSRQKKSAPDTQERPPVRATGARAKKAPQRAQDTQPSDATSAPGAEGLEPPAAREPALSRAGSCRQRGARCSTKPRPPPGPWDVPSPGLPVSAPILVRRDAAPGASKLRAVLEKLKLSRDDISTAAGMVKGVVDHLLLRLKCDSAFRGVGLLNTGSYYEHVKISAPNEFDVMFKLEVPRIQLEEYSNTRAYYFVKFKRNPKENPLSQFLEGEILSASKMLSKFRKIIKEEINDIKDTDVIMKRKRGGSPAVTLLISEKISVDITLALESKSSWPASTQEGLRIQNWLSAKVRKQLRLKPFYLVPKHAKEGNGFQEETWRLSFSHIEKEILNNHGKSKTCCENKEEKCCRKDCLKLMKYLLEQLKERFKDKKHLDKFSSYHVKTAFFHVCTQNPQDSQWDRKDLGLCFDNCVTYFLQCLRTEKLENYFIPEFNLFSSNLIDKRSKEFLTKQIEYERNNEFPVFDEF

Turning to `CCc1nc(N2CCC[C@H]2C(=O)O)c2oc3ccccc3c2n1` [Compound 1, (2-ethylbenzofuro[3,2-d]pyrimidin-4-yl)-L-proline], at cGAS [1], the Kd turned out to be 2400 nM. The IC50 is 19000 nM at cGAS [2] (5 mM Mg^2+, 0.2 mM Mn^2+, read-out: IC50 (5 mM Mg^2+, 0.2 mM Mn^2+)); 2600 nM on cGAS [2] (5 mM Mg^2+, read-out: IC50 (5 mM Mg^2+)); > 10000 nM on cGAS [2] (setting [6]); 1000 to 10000 nM on cGAS [2] (setting [7]); 1260 nM at cGAS [2] (read-out: IC50 in the cGAS enzymatic assay).

Consider `O=C(NCCCNc1nc(Nc2cccc(NC(=O)N3CCCC3)c2)ncc1I)c1cccs1` [BX-795, reference compound], for which the “inhibition of IRF3-dependent Luc expression” value in assay [3] is on record as “dose-dependent inhibition”. Besides, the “inhibition of NFκB-driven SEAP expression” value in assay [4] is on record as “did not inhibit”. In addition, the “effect on IRF3-driven Luc expression in THP1 cGAS KO cells stimulated with LPS” value with THP1 cGAS KO cells is recorded as “inhibited with an expected potency”.

With `Cc1ccc(C(=O)Nc2ccc(S(=O)(=O)O)c3cc(S(=O)(=O)O)cc(S(=O)(=O)O)c23)cc1NC(=O)c1cccc(NC(=O)Nc2cccc(C(=O)Nc3cc(C(=O)Nc4ccc(S(=O)(=O)O)c5cc(S(=O)(=O)O)cc(S(=O)(=O)O)c45)ccc3C)c2)c1` [suramin, reference compound], in assay [3], the cGAS-dependent cellular activity result was “not observed”.

For `CCc1nc(N2CC[C@H]2C(=O)O)c2oc3ccccc3c2n1` [Compound 19, (S)-1-(2-ethylbenzofuro[3,2-d]pyrimidin-4-yl)azetidine-2-carboxylic acid], the IC50 on cGAS [2] (setting [6]) and on cGAS [2] (setting [7]) was 1000 to 10000 nM each time.

For the compound `CCN(CCO)CCCC(C)Nc1ccnc2cc(Cl)ccc12` (centres unmarked) [hydroxychloroquine, reference compound], the cGAS-dependent cellular activity entry in assay [3] is “not observed”.

In the case of `O=C(O)C1CCCN(c2ncnc3c2oc2ccccc23)C1` (centres unmarked) [Compound 6, 1-(benzofuro[3,2-d]pyrimidin-4-yl)piperidine-3-carboxylic acid], the IC50 on cGAS [2] (setting [6]) and on cGAS [2] (setting [7]) was > 10000 nM in each case.

`Cc1nc(N2C[C@@H](NC(=O)Cc3ncc[nH]3)C[C@H]2C(=O)O)c2oc3ccccc3c2n1` [Compound 36, (2S,4S)-4-(2-(1H-imidazol-2-yl)acetamido)-1-(2-methylbenzofuro[3,2-d]pyrimidin-4-yl)pyrrolidine-2-carboxylic acid]: the IC50 on cGAS [2] (setting [7]) was 500 to 1000 nM.

Consider `CCN(CC)CCCC(C)Nc1c2ccc(Cl)cc2nc2ccc(OC)cc12` (centres unmarked) [quinacrine, reference compound], for which the cGAS-dependent cellular activity entry in assay [3] is listed as “not observed”.

As to `Cc1nc(N2C[C@@H](NC(=O)C(C)(C)c3ccncc3)C[C@H]2C(=O)O)c2oc3ccccc3c2n1` [Compound 29, (2S,4S)-4-(2-methyl-2-(pyridin-4-yl)propanamido)-1-(2-methylbenzofuro[3,2-d]pyrimidin-4-yl)pyrrolidine-2-carboxylic acid], on cGAS [2] (setting [7]), the IC50 fell in the range of 100 to 500 nM.

Regarding `Cc1nc(N2CCC[C@H]2C(=O)O)c2oc3cc(F)ccc3c2n1` [Compound 69, (7-fluoro-2-methylbenzofuro[3,2-d]pyrimidin-4-yl)-L-proline], the IC50 on cGAS [2] (setting [6]) was 1000 to 10000 nM; on cGAS [2] (setting [7]), 500 to 1000 nM.

For the compound `N#Cc1nc(N2CCC[C@H]2C(=O)O)c2oc3ccccc3c2n1` [Compound 22, (2-cyanobenzofuro[3,2-d]pyrimidin-4-yl)-L-proline], the IC50 on cGAS [2] (setting [6]) and on cGAS [2] (setting [7]) was 1000 to 10000 nM throughout.

With `Cc1nc(N2CC[C@H]2C(=O)O)c2oc3ccccc3c2n1` [Compound 68, (S)-1-(2-methylbenzofuro[3,2-d]pyrimidin-4-yl)azetidine-2-carboxylic acid], the IC50 was in the range of 1000 to 10000 nM on cGAS [2] (setting [6]) and 500 to 1000 nM on cGAS [2] (setting [7]).

For `Cc1nc(N2C[C@@H](Cc3nn[nH]n3)C[C@H]2C(=O)O)c2oc3ccccc3c2n1` [Compound 25, (2S,4R)-4-((1H-tetrazol-5-yl)methyl)-1-(2-methylbenzofuro[3,2-d]pyrimidin-4-yl)pyrrolidine-2-carboxylic acid], on cGAS [2] (setting [7]), the IC50 was < 100 nM.

With `Cc1nc(N2C[C@@H](Nc3n[nH]cc3C3CC3)C[C@H]2C(=O)O)c2oc3ccccc3c2n1` [Compound 53, (2S,4S)-4-((4-cyclopropyl-1H-pyrazol-3-yl)amino)-1-(2-methylbenzofuro[3,2-d]pyrimidin-4-yl)pyrrolidine-2-carboxylic acid], the “inhibition of IRF3-dependent Luc expression” value in assay [3] is “reproducible inhibition”. In addition, in assay [5], the “inhibition of IFNβ expression” value is recorded as “inhibit IFNβ expression”. The IC50 at cGAS [2] (setting [6]) lay within 1000 to 10000 nM; on cGAS [2] (setting [7]), 100 to 500 nM.

Consider `Cc1nc(N2C[C@@H](CC(N)=O)C[C@H]2C(=O)O)c2oc3ccccc3c2n1` [Compound 45, (2S,4R)-4-(2-amino-2-oxoethyl)-1-(2-methylbenzofuro[3,2-d]pyrimidin-4-yl)pyrrolidine-2-carboxylic acid], for which the IC50 at cGAS [2] (setting [7]) lay in the range of 500 to 1000 nM.

As for `Cc1nc(N2C[C@@H](NC(=O)c3ncc[nH]3)C[C@H]2C(=O)O)c2oc3ccccc3c2n1` [Compound 47, (2S,4S)-4-(1H-imidazole-2-carboxamido)-1-(2-methylbenzofuro[3,2-d]pyrimidin-4-yl)pyrrolidine-2-carboxylic acid], the IC50 at cGAS [2] (setting [7]) was in the range of 1000 to 10000 nM.

On to `Cc1cncc(CC(=O)N[C@H]2C[C@@H](C(=O)O)N(c3nc(C)nc4c3oc3ccccc34)C2)c1` [Compound 42, (2S,4S)-1-(2-methylbenzofuro[3,2-d]pyrimidin-4-yl)-4-(2-(5-methylpyridin-3-yl)acetamido)pyrrolidine-2-carboxylic acid], for which the IC50 on cGAS [2] (setting [7]) is 500 to 1000 nM.
